“Also recorded” adds a separate entry of the source.
Experiments:
[1] = molecular target: E. faecalis SAS RelQ (RelQEf) (Enterococcus faecalis, UniProt Q830U9); test: Inhibition of E. faecalis SAS RelQ ppGpp synthesis; format: biochemical; conditions: for Effect on RelQEf activity (in words): concentrations up to 1 mM
Description: In E. coli, ppGpp is synthesized by the multi-domain RSHs RelA and SpoT, however, numerous single-domain RSHs – Small Alarmone Synthetases (SAS) – are widely distributed across bacterial taxa[3]. […] Therefore we tested the effects of DR-4250, DR-M014 and DR-5163 on RelQEf activity (Supplementary Figure 2).
Detailed description of experimental procedures can be found in Supplementary Text. Biochemical assays utilize in vitro translation[58] and stringent response[15] systems from E. coli purified components. Experiments were performed in HEPES:Polymix[58] buffer with either 5 (for enzymatically assembled initiation complexes) or 15 mM (for vacant 70 S, as well as non-enzymatically assembled programmed ribosomes) Mg^2+. Expression and purification of E. faecalis RelQ was performed as per Gaca (2015) and colleagues. GTPase and ppGpp synthesis were followed using TLC separation and radiochemical detection of ^3H-labelled nucleotides. Multiple round in vitro transcription assays were performed as per Bernardo et al.[49] with minor modifications. Inhibition efficiency (IC50) was calculated using 4-parameter logistic model (Hill equation) as per Sebaugh[60].
RelQ activity0.4 RelQ activity0.4 RelQ activity0.4
Supplementary Figure 2 | Inhibition of E. faecalis SAS RelQ by DR-4250, DR-
M014 and DR-5163 is inefficient. The reaction mixture contains 0.25 µM RelQEf,
300 µM [3H] GDP, 0.5 mg/ml BSA, 100 µM ppGpp, 1 mM ATP in Hepes:Polymix at […]

E. coli RelA = molecular target: T1, E. coli RelA (Escherichia coli, UniProt P0AG20); test: Inhibition of RelA activated by programmed 'starved' ribosomal complexes containing deacylated A-site tRNAPhe; format: biochemical; conditions: 30 nM RelA, 0.5 μM 70S, 2 μM tRNAPhe, 2 μM tRNAiMet, 2 μM mRNA(MF), 100 μM ppGpp, 0.3 mM [3H]GDP, 1 mM ATP, 5 mM Mg2+; read-out: IC50, 70S(MF:tPhe)
T1 construct: made in house
T1 sequence (P0AG20 whole entry): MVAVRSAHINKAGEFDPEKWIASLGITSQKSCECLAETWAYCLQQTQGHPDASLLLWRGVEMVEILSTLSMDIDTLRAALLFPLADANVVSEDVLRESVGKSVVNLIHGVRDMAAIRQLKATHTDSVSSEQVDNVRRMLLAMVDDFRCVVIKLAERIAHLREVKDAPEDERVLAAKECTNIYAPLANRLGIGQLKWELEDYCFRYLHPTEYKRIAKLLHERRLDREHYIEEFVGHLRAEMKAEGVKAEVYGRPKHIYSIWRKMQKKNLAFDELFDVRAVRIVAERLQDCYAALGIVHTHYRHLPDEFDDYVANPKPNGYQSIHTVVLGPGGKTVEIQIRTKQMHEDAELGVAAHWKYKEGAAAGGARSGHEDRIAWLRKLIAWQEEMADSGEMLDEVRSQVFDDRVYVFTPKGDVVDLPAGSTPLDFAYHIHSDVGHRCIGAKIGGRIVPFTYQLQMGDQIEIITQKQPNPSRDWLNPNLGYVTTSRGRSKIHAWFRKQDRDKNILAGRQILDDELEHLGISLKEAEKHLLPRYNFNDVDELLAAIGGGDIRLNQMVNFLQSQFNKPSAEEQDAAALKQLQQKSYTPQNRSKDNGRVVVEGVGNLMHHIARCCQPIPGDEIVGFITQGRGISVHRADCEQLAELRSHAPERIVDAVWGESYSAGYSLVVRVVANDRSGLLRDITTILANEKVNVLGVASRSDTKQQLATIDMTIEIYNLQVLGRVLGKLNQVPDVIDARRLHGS
Experimental: Screening was performed in a cost-efficient way using RelA activated by the presence of vacant 70S ribosomes and 100 μM ppGpp. However, to become fully active, RelA requires the presence of ‘starved’ ribosomal complexes containing deacylated A-site tRNA[17]. We therefore prepared ‘starved’ complexes using model mRNA coding for fMetPhe (MF) dipeptide and purified deacylated tRNAs tRNA^Phe and tRNA^fMeti[42] to test the efficiency of DR-4250 and DR-M014 in this more physiologically relevant system (Fig. 4a,b).
Figure 4 Functional studies of DR-M014 and DR-4250 with programmed ribosomal complexes. (a,b) Inhibition of RelA activated by starved ribosomal complexes containing deacylated A-site tRNA^Phe. […]
Both EF-G GTPase reaction and ppGpp synthesis by RelA were followed by TLC analysis followed by scintillation counting according to Mechold and colleagues, with modifications1. […] TLC was run in buffer, plates dried, cut into sections guided by UV-shadowing and 3H radioactivity was quantified by scintillation counting in Optisafe-3 (Fisher) scintillation cocktail on Perkin Elmer Tricarb 2810TR counter. Conversion of substrate to product was quantified as described in Shyp et al. (2012)2. […]
Screening: all experiments were performed in HEPES:Polymix, Mg2+ of 5 mM, 37 °C. […] Inhibition efficiency (IC50) was calculated using 4-parameter logistic model (Hill equation) as per Sebaugh (2011)3. […]

Sequence of E. faecalis SAS RelQ (RelQEf) (Q830U9 entry or part of it): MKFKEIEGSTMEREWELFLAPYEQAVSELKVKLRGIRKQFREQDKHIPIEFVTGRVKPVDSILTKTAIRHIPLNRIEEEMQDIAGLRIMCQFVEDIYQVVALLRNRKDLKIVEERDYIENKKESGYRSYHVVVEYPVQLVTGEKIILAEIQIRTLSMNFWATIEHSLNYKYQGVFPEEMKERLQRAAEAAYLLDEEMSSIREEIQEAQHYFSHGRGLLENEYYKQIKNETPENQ

| Compound | IC50 ([1]; 0.25 µM RelQEf, 300 µM [3H]GDP, 100 µM ppGpp, 1 mM ATP, 37°C) [µM] | Effect on RelQEf activity (in words) [1] | IC50 (E. coli RelA) [µM] |
| --- | --- | --- | --- |
| Nc1nc2c(ncn2C2OC(COP(=O)(O)OCP(=O)(O)O)C(OP(=O)(O)OCP(=O)(O)O)C2O)c(=O)[nH]1 (centres unmarked) [DR-4250, Guanosine 3’,5’-di(phosphonomethoxyphosphate)] | 235 ± 19 | inefficient | 41 ± 7 |
| Nc1nc2c(ncn2C2CCN(C(=O)P(=O)(O)O)CC2)c(=O)[nH]1 [DR-M014] |  | inefficient; also recorded: almost inactive | 155 ± 14 |
